Tests used:
recombinant LOXL2 = biological target: T1, recombinant LOXL2 (Homo sapiens, UniProt Q9Y4K0); assay: Amplex Red activity/inhibition assay, recombinant LOXL2; type: biochemical; conditions: putrescine substrate
T1 construct: purchased R&D Systems
T1 sequence (Q9Y4K0 26-774): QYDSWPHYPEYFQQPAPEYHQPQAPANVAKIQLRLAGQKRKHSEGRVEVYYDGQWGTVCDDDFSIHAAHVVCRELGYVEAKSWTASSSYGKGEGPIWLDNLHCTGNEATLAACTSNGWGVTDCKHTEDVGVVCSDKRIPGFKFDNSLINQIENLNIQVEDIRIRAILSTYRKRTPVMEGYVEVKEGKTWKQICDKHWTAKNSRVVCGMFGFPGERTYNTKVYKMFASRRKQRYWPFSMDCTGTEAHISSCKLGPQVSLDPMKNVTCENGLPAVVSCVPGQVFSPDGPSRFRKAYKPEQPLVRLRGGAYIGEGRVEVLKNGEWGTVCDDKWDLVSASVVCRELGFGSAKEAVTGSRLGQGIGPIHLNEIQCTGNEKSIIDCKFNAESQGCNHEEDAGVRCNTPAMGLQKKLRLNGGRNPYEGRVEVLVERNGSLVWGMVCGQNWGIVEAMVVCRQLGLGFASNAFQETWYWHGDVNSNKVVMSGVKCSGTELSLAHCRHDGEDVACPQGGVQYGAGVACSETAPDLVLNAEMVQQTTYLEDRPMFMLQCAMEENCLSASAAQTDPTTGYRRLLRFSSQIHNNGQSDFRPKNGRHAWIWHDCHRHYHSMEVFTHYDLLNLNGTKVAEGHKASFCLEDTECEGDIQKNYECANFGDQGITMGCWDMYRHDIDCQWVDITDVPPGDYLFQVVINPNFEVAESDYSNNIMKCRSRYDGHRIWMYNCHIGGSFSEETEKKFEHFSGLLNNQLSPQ
Protocol: (§1) The standard amplex red assay has been used as previously described using putrescine as a substrate and native ´fibroblast derived LOX, which was prepared by collecting the supernatant of IMR90 cells, followed by a size filtration > 10 kDa for concentration and < 50 kDa to separate from LOXL2, or recombinant LOXL2 as enzyme (R&D Systems).

native human LOX enzyme = biological target: T2, native human LOX enzyme (Homo sapiens, UniProt P28300); assay: Amplex Red activity/inhibition assay, native fibroblast-derived LOX; type: biochemical; conditions: native fibroblast (IMR90) derived LOX; putrescine substrate
T2 construct: fibroblast derived LOX, which was prepared by collecting the supernatant of IMR90 cells; endogenous in cells; host or cells: IMR90 cells (supernatant, size filtered > 10 kDa and < 50 kDa)
T2 sequence (P28300 169-417): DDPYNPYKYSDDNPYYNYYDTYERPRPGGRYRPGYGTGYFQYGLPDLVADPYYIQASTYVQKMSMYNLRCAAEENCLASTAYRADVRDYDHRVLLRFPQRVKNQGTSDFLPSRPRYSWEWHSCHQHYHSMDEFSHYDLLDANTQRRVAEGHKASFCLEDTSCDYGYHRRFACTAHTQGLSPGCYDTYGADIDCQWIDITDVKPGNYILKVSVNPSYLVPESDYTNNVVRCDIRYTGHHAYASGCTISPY
Protocol: as §1

N#CCCN [BAPN, β-aminopropionitrile]
pIC50 ± SD against recombinant LOXL2 enzyme (recombinant LOXL2): 6.4 ± 0.1 | pIC50 ± SD against native human LOX enzyme (native human LOX enzyme): 5.5 ± 0.1
